Laboratory results taken from patent US20140242099A1 (Synta Pharmaceuticals Corp., priority 2011, published 2014).

What was measured:
[1] = test system: IL-2 production in Jurkat T-cells; assay: Inhibition of IL-2 production, Jurkat/PHA/1% FBS, ELISA; assay type: cell-based; conditions: Homo sapiens, read-out: IL-2 inhibition Jurkat/PHA/1% FBS IC50 (nM), PHA 2.5 μg/mL, 20 hours
Protocol: JurkaT-cells were placed in a 96 well plate (0.5 million cells per well in 1% FBS medium), and then a test compound of this invention was added at different concentrations. After 10 minutes, the cells were activated with PHA (final concentration 2.5 μg/mL) and incubated for 20 hours at 37° C. under 5% CO2. The final volume was 200 μL. Following incubation, the cells were centrifuged, and the supernatants collected and stored at −70° C. prior to assaying for IL-2 production. A commercial ELISA kit (IL-2 Eli-pair, Diaclone Research, Besancon, France) was used to detect production of IL-2, from which dose response curves were obtained. The IC50 value was calculated as the concentration at which 50% of maximum IL-2 production after stimulation was inhibited versus a non-stimulation control.

[2] = target: T1, ICRAC current (CRAC ion channels), RBL-2H3 cells (Rattus norvegicus, UniProt Q5M848); assay: Automated patch clamp (Qpatch) inhibition of ICRAC current in RBL-2H3 cells; assay type: cell-based; conditions: compound at 100 nM, method calculates % ICRAC inhibition
T1 construct: endogenous in cells; host or cells: RBL-2H3 (rat basophilic leukemia cells)
Protocol: Automated patch clamp experiments are conducted with the QPatch 16 (Sophion Bioscience, Ballerup, Denmark) at room temperature (21-25° C.). Immediately following the establishment of giga-seal whole-cell configuration, the cells membrane potential is clamped at 0 mV. Voltage ramps of 50 ms duration spanning the voltage range of −100 to +100 mV are then stimulated at a rate of 0.33 Hz. Currents are filtered at 2.9 kHz and digitized at 200 μs intervals. Capacitive currents and series resistance are determined and corrected before each voltage ramp using the automatic capacitance compensation.
RBL-2H3 are grown in DMEM media supplemented with 10% fetal bovine serum, penicillin 100 U/ml and streptomycin […] in an atmosphere of 95% air/5% CO2. Cells are grown to confluence in 175 cm^2 tissue culture flask. On the experimental day, cells harvested with 0.25% trypsin/0.02% EDTA and resuspended in extracellular solution at density of 5×10^6 cells/ml.
The intracellular solution contains Cs-Glutamate 90 mM; NaCl 8 mM; MgCl2 3 mM; CsCl 20 mM; CsBAPTA 20 mM; HEPES 10 mM; InsP3 0.02 mM; pH=7.2 adjusted with CsOH.
The extracellular solution contains NMDGCl 120 mM; KCl 5.4 mM; CsCl 10 mM; CaCl2 10 mM; MgCl2 1 mM; HEPES 10 mM; Glucose 5.5 mM; at pH=7.4 adjusted with HCl.
ICRAC currents are measured using 50 msec voltage ramps between −100 mV to +100 mV. The voltage ramps are stimulated every 3 seconds for at least 570 seconds. The maximum ICRAC current is allowed to develop for at least 135 seconds. Compounds diluted in extracellular solutions are then applied twice, 30 seconds apart. After incubating the cells with compound for 435 seconds, a reference solution is applied at the end of the experiment. The reference solution is a Ca^2+ free extracellular solution.
Off-line analysis with the Qpatch software is used to plot the current value at −80 mV for each ramp trace against time. The resulting current versus time data is then exported into a Microsoft Excel spreadsheet. The ICRAC membrane currents are separated from the cells basal background currents by either subtracting out the average membrane current values during the first 1-3 traces, or the average membrane current values obtained with the reference solution at the end of the experiment. The % ICRAC inhibition in each cell is calculated by comparing the amount of current just prior to the first compound addition to the amount of current after the cells has been perfused with the compound for at least 400 seconds.

T1 sequence (Q5M848 whole entry): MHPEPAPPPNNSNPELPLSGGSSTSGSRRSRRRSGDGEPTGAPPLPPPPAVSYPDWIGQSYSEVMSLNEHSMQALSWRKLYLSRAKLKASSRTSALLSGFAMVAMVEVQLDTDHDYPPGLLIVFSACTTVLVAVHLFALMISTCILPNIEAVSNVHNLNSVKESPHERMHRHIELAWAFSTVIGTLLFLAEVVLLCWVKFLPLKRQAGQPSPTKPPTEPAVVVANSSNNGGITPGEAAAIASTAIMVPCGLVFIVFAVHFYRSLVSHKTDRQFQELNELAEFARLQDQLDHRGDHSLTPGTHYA

Row | IC50 [1] [nM] | inhibition at 0.1 µM [2] [%] | Structure (SMILES)
1 | 10 | 98 | Cn1cc(-c2ccc(Cl)c(-c3cnc(NC(=O)c4cccc(F)c4F)cn3)c2)cn1 [Compound 7, N-(5-(2-chloro-5-(1-methyl-1H-pyrazol-4-yl)phenyl)pyrazin-2-yl)-2,3-difluorobenzamide]
2 | 14 | 82 | Cn1cc(-c2ccc(Cl)c(-c3cnc(NC(=O)c4ccc(F)cc4F)cn3)c2)cn1 [Compound 8, N-(5-(2-chloro-5-(1-methyl-1H-pyrazol-4-yl)phenyl)pyrazin-2-yl)-2,4-difluorobenzamide]
3 | 10 | 73 | CCc1sc(-c2cc(C)on2)nc1-c1ccc(NC(=O)c2cncc(Cl)c2C)nc1 [Compound 9]

The next lines start with the compound.

Row | Structure (SMILES) | IC50 [1] [nM] | inhibition at 0.1 µM [2] [%]
4 | Cc1ccc(-c2nc(-c3ccc(C(=O)Nc4c(F)cccc4F)cc3)c(C)s2)cn1 [Compound 1] | 27 | 80
5 | Cc1cc(C)c(NC(=O)c2ccc(-c3cc(-c4nnn(C)n4)ccc3Cl)cc2)cn1 [Compound 2, 2′-chloro-N-(4,6-dimethylpyridin-3-yl)-5′-(2-methyl-2H-tetrazol-5-yl)-[1,1′-biphenyl]-4-carboxamide] | 33 | 61
6 | Cc1cc(C)c(NC(=O)c2ccc(-c3cc(-c4nnn(C)n4)ccc3C)cc2)cn1 [Compound 3, N-(4,6-dimethylpyridin-3-yl)-2′-methyl-5′-(2-methyl-2H-tetrazol-5-yl)-[1,1′-biphenyl]-4-carboxamide] | 46 | 36
7 | Cc1ccncc1C(=O)Nc1ccc(-c2cc(-c3nnn(C)n3)ccc2Cl)cn1 [Compound 4, N-(5-(2-chloro-5-(2-methyl-2H-tetrazol-5-yl)phenyl)pyridin-2-yl)-4-methylnicotinamide] | – | 36
8 | CCc1sc(-c2cnc(C)cn2)nc1-c1ccc(C(=O)Nc2cnc(C)cc2C)cc1 [Compound 5] | 32 | 40
9 | CCc1sc(-c2cc(C)on2)nc1-c1ccc(C(=O)Nc2cncnc2C)cc1 [Compound 6] | 38 | 93
